The experiment relates to P388 leukemia ip, CD2F1 mice, survival T/C. The experiment in a line: NCI In Vivo Anticancer Drug Screen. Data for tumor model P388 Leukemia (intraperitoneal) in CD2F1 (CDF1) mice. Particulars: endpoint: median survival time, higher = longer survival. The method, boiled down:
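Mice carrying the transplanted tumor received test compound or vehicle. Survival was recorded in each group, and the value is the treated-group measurement divided by that of the vehicle-treated control group.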

Where [1] appears, read: dose: 25.0 mg/kg/injection, schedule: Q01DX009 (ip), vehicle: saline with Tween-80.
[2] abbreviates: dose: 50.0 mg/kg/injection, schedule: Q01DX009 (ip), vehicle: saline with Tween-80.
Setting [3] is: dose: 50.0 mg/kg/injection, schedule: Q01DX009 (ip), vehicle: saline.
[4] abbreviates: dose: 60.0 mg/kg/injection, schedule: Q01DX005 (ip), vehicle: saline with Tween-80.
[5] abbreviates: dose: 120.0 mg/kg/injection, schedule: Q01DX005 (ip), vehicle: saline with Tween-80.
Setting [6] is: dose: 50.0 mg/kg/injection, schedule: Q01DX005 (ip), vehicle: saline with Tween-80.
[7] abbreviates: dose: 100.0 mg/kg/injection, schedule: Q01DX005 (ip), vehicle: saline with Tween-80.
The mark [8] stands for this setting: dose: 200.0 mg/kg/injection, schedule: Q01DX005 (ip), vehicle: saline with Tween-80.
Setting [9] is: dose: 100.0 mg/kg/injection, schedule: Q01DX009 (ip), vehicle: saline with Tween-80.
Where [10] appears, read: dose: 200.0 mg/kg/injection, schedule: Q01DX009 (ip), vehicle: saline with Tween-80.

The record followed here is PubChem BioAssay AID330 (DTP/NCI, 2004).

Molecules are shown by their SMILES. Several values for one entry are separate records, joined by “and”; a condition that tells them apart may be missing. Equal entries are not always repeated. Toxic doses and inconclusive results are not listed.

In the case of `CCCCCc1onc(-c2noc(CCCCC)c2C)c1C`, the T/C runs as follows: (dose: 60.0 mg/kg/injection, schedule: Q01DX005 (ip), vehicle: saline) 100 % of control; (dose: 120.0 mg/kg/injection, schedule: Q01DX005 (ip), vehicle: saline) 99 % of control; (dose: 240.0 mg/kg/injection, schedule: Q01DX005 (ip), vehicle: saline) 104 % of control.
Regarding `NC(=S)N/N=C/c1cc(-c2cccc(N)c2)ccn1`, the T/C was 121 % of control (dose: 6.25 mg/kg/injection, schedule: Q01DX009 (ip), vehicle: saline); 109 % of control (dose: 9.4 mg/kg/injection, schedule: Q04DX003 (ip), vehicle: saline); 122 % of control (dose: 18.8 mg/kg/injection, schedule: Q04DX003 (ip), vehicle: saline); 119 % of control under setting [1]; 150 % of control (dose: 25.0 mg/kg/injection, schedule: Q01DX009 (ip), vehicle: saline); 122 % of control under setting [2]. The T/C is, setting by setting: under setting [3], 154 % of control; (dose: 75.0 mg/kg/injection, schedule: Q01DX009 (ip), vehicle: saline with Tween-80) 111 % of control and 122 % of control; (dose: 75.0 mg/kg/injection, schedule: Q01DX009 (ip), vehicle: saline) 158 % of control; (dose: 150.0 mg/kg/injection, schedule: Q04DX003 (ip), vehicle: saline) 123 % of control.
Regarding `COc1ccc(Cc2nnc(C)c3c(C)[nH]nc23)cc1`, the T/C runs as follows: (dose: 50.0 mg/kg/injection, schedule: Q01DX009 (ip), vehicle: Klucel (hydroxypropylcellulose) (HPC)) 91 % of control; (dose: 100.0 mg/kg/injection, schedule: Q01DX009 (ip), vehicle: Klucel (hydroxypropylcellulose) (HPC)) 91 % of control; (dose: 200.0 mg/kg/injection, schedule: Q01DX009 (ip), vehicle: Klucel (hydroxypropylcellulose) (HPC)) 86 % of control.
As to `COc1cc(C2c3cc4c(cc3OC(N3CCCC3)C2C)OCO4)cc(OC)c1OC` (stereo not drawn), the T/C reads like this: under setting [4], 90 % of control; under setting [5], 93 % of control; (dose: 240.0 mg/kg/injection, schedule: Q01DX005 (ip), vehicle: saline with Tween-80) 104 % of control.
On to `O=C(CCCCC(=O)Nc1ccc2[nH]c3ccccc3c(=O)c2c1)Nc1ccc2[nH]c3ccccc3c(=O)c2c1`, for which the T/C reads like this: under setting [6], 104 % of control; under setting [7], 105 % of control; under setting [8], 100 % of control.
In the case of `Cc1cc(N(CCOS(C)(=O)=O)CCOS(C)(=O)=O)ccc1C=Nc1ccc(-c2csc(-c3ccc(Br)cc3)n2)cc1`, the T/C is 180 % of control under setting [1]; 209 % of control under setting [2]; 98 % of control and 90 % of control under setting [9].
Regarding `COC(=O)NC1=Nc2ccccc2N(C(=O)Oc2ccccc2)S1`, the T/C runs as follows: (dose: 50.0 mg/kg/injection, schedule: Q01DX005 (ip), vehicle: acetone) 100 % of control; (dose: 100.0 mg/kg/injection, schedule: Q01DX005 (ip), vehicle: acetone) 100 % of control; (dose: 200.0 mg/kg/injection, schedule: Q01DX005 (ip), vehicle: acetone) 107 % of control.
Regarding `CN(C)c1ncnc2c1ccn2COCCO`, the T/C is 100 % of control (dose: 50.0 mg/kg/injection, schedule: Q01DX005 (ip), vehicle: distilled water + alcohol); 98 % of control (dose: 100.0 mg/kg/injection, schedule: Q01DX005 (ip), vehicle: distilled water + alcohol); 107 % of control (dose: 200.0 mg/kg/injection, schedule: Q01DX005 (ip), vehicle: distilled water + alcohol).
For `O=C(c1ccccc1)c1ccccc1NC(=O)C(F)(F)F`, the T/C is, setting by setting: under setting [2], 100 % of control; under setting [9], 95 % of control; under setting [10], 96 % of control.
For the compound `CN(C)Cc1cn(C)c2ccccc12`, the T/C was 99 % of control (dose: 12.5 mg/kg/injection, schedule: Q01DX005 (ip), vehicle: saline); 93 % of control (dose: 25.0 mg/kg/injection, schedule: Q01DX005 (ip), vehicle: saline); 98 % of control and 95 % of control (dose: 50.0 mg/kg/injection, schedule: Q01DX005 (ip), vehicle: saline).
`Cc1[nH]c(=O)[nH]c(=O)c1CO`: the T/C is, setting by setting: under setting [2], 100 % of control; under setting [9], 102 % of control; under setting [10], 101 % of control; (dose: 400.0 mg/kg/injection, schedule: Q01DX009 (ip), vehicle: saline with Tween-80) 100 % of control.
For `Cc1ccc2c(c1)C1(SCCC(=O)N1c1ccc(Cl)cc1)C(=O)N2` (stereo not drawn), the T/C was 103 % of control under setting [6], 95 % of control under setting [7] and 100 % of control under setting [8].
As to `CCOC(=O)Nc1nc2ccc(C(=O)OCC)cc2[nH]1`, the T/C by setting is: (dose: 100.0 mg/kg/injection, schedule: Q04DX003 (ip), vehicle: saline) 108 % of control; (dose: 200.0 mg/kg/injection, schedule: Q04DX003 (ip), vehicle: saline) 101 % of control; (dose: 400.0 mg/kg/injection, schedule: Q04DX003 (ip), vehicle: saline) 108 % of control.
As to `Cc1cccc(N=Nc2c(-c3ccccc3)nn(C(=S)S)c2C)c1C`, the T/C is 100 % of control (dose: 12.5 mg/kg/injection, schedule: Q01DX001 (ip), vehicle: saline with Tween-80); 96 % of control (dose: 25.0 mg/kg/injection, schedule: Q01DX001 (ip), vehicle: saline with Tween-80); 96 % of control (dose: 50.0 mg/kg/injection, schedule: Q01DX001 (ip), vehicle: saline with Tween-80); 91 % of control (dose: 200.0 mg/kg/injection, schedule: Q01DX001 (ip), vehicle: saline with Tween-80); 99 % of control (dose: 400.0 mg/kg/injection, schedule: Q01DX001 (ip), vehicle: saline with Tween-80).
On to `C=C1C(O)C2OC3(CCC(/C=C/C(C)C4CC5(C)SC5C5(OC(CC(C)(O)C(=O)O)CCC5O)O4)O3)CCC2OC1C(O)CC(C)C1OC2(CCCCO2)CCC1C` (stereo not drawn), for which the T/C runs as follows: (dose: 1.87 micrograms/kg/injection, schedule: Q01DX005 (ip), vehicle: saline + alcohol) 102 % of control and 103 % of control; (dose: 3.75 micrograms/kg/injection, schedule: Q01DX005 (ip), vehicle: saline + alcohol) 103 % of control and 120 % of control and 93 % of control; (dose: 7.5 micrograms/kg/injection, schedule: Q01DX005 (ip), vehicle: saline + alcohol) 100 % of control and 103 % of control; (dose: 15.0 micrograms/kg/injection, schedule: Q01DX005 (ip), vehicle: saline + alcohol) 111 % of control.
Take `CCCCCCCCCCCCCCCCCCOS(=O)(=O)O` (tested in a mixture with another compound): the T/C is, setting by setting: under setting [3], 102 % of control; (dose: 100.0 mg/kg/injection, schedule: Q01DX009 (ip), vehicle: saline) 104 % of control; (dose: 200.0 mg/kg/injection, schedule: Q01DX009 (ip), vehicle: saline) 104 % of control.
Take `Cc1[nH]c(=O)nc(CCc2ccccc2)c1-c1ccccc1`: the T/C runs as follows: under setting [4], 93 % of control; under setting [5], 87 % of control.
For the compound `N#Cc1c(N)nc2c(c1N)CC(CO)O2` (stereo not drawn), the T/C was 96 % of control under setting [2] and 93 % of control under setting [9].
Turning to `O=C(NNc1ccccc1)NN(C(=O)Nc1cccc(Cl)c1)c1ccccc1`, the T/C was 96 % of control (dose: 50.0 mg/kg/injection, schedule: Q01DX005 (ip), vehicle: Klucel (hydroxypropylcellulose) (HPC)); 104 % of control (dose: 100.0 mg/kg/injection, schedule: Q01DX005 (ip), vehicle: Klucel (hydroxypropylcellulose) (HPC)); 100 % of control (dose: 200.0 mg/kg/injection, schedule: Q01DX005 (ip), vehicle: Klucel (hydroxypropylcellulose) (HPC)).
Consider `CC12CCC(Br)C(C)(C)C1CC=C1C(=O)OCC1O2` (stereo not drawn), for which the T/C was 101 % of control (dose: 7.5 mg/kg/injection, schedule: Q01DX009 (ip), vehicle: Klucel (hydroxypropylcellulose) (HPC)); 105 % of control (dose: 15.0 mg/kg/injection, schedule: Q01DX009 (ip), vehicle: Klucel (hydroxypropylcellulose) (HPC)); 111 % of control (dose: 30.0 mg/kg/injection, schedule: Q01DX009 (ip), vehicle: Klucel (hydroxypropylcellulose) (HPC)); 111 % of control (dose: 60.0 mg/kg/injection, schedule: Q01DX009 (ip), vehicle: Klucel (hydroxypropylcellulose) (HPC)).
Take `O=C1CCC(O)=C1C1=NCCCC1`: the T/C was 94 % of control (dose: 100.0 mg/kg/injection, schedule: Q04DX002 (ip), vehicle: saline with Tween-80); 108 % of control (dose: 200.0 mg/kg/injection, schedule: Q04DX002 (ip), vehicle: saline with Tween-80); 101 % of control (dose: 400.0 mg/kg/injection, schedule: Q04DX002 (ip), vehicle: saline with Tween-80).
